Laboratory results: patent publication EP4692088A1, “COMPOUND ACTING AS WRN HELICASE INHIBITOR” (SHANGHAI JEYOU PHARMACEUTICAL CO., LTD., priority 2023, dated 2024)
Where two headings read alike, the source gives them in different places.

Assays:
SW620 cells = assay: Cell proliferation assay (CellTiter-Glo), SW620; format: cell-based; conditions: Homo sapiens, 120 h, SW-620 (MSS), 5 days incubation
Protocol: (§1) SW48 cells were plated at a density of 1,500 cells/well, and LoVo, HCT116, and SW620 cells were plated at a density of 800 cells/well in a 96-well cell culture plate, and cultured in a 37°C incubator overnight. The test compounds, which were gradient-diluted with DMSO, were added, and after incubation for 5 days, cell viability was detected using a CellTiter-Glo kit. The CellTiter-Glo reagent was equilibrated to room temperature, and an appropriate amount was added to the cell plate, followed by shaking at room temperature for 12 min. The luminescence signal was detected using a microplate reader.
(§2) The luminescence signal values of the DMSO-treated wells and cell-free wells were used as negative and positive controls, respectively, to calculate the inhibition rate of compound on cell proliferation. The concentration-inhibition curve was fitted using the "log(inhibitor) vs. normalized response -- Variable slope" equation in GraphPad Prism 8 software to obtain the IC50. [formula]

LoVo = assay: Cell proliferation assay (CellTiter-Glo), LoVo; format: cell-based; conditions: Homo sapiens, 120 h, 5 days incubation
Protocol: as §1, §2

SW48 cells = assay: Cell proliferation assay (CellTiter-Glo), SW48; format: cell-based; conditions: Homo sapiens, SW48, 120 h, SW-48, 5 days incubation
Protocol: as §1, §2

HCT116 cells = assay: Cell proliferation assay (CellTiter-Glo), HCT116; format: cell-based; conditions: Homo sapiens, 120 h, HCT-116, 5 days incubation
Protocol: as §1, §2

WRN enzyme = target: T1, WRN enzyme (Homo sapiens, UniProt Q14191); assay: biochemical
T1 construct: host or cells: eukaryotic cells (not further specified)
Protocol: The WRN enzyme used in the experiment has a His-TEV tag at the N-terminus and is expressed in eukaryotic cells with a purity of 90%. The assay kit (ADP-Glo™ Kinase Assay) was purchased from Promega (Cat. No. V9101), aliquoted, and then stored in the refrigerator at -40°C. This kit could quantitatively detect the amount of ADP generated in the reaction. WRN hydrolyzed ATP to produce ADP. The ADP-Glo reagent was added to deplete excess ATP in the reaction system, followed by the addition of Kinase Detection Reagent to convert the ADP produced by the reaction into ATP and produce chemiluminescence. The enzyme activity of WRN can be reflected by detecting the chemiluminescence signal using a microplate reader.
Single-stranded DNA was annealed to form double-stranded DNA. 5× Annealing Buffer: 50 mM Tris pH 8.0, 100 mM NaCl. Annealing program: 95°C, 5 min.
2× WRN enzyme (1 nM) and 2× substrate (1 nM double-stranded DNA, 100 µM ATP) were prepared using a buffer (20 mM Bicine (pH 7.5), 10 mM KCl, 10 mM MgCl2, 0.005% BSG, 0.002% Tween 20, 1 mM TCEP). The test compound was dissolved in DMSO to 10 mM and was gradient-diluted using a 96-well V-bottom plate. First, 25 µL of 2× WRN enzyme and 0.5 µL of compound were added to a 96-well plate and incubated at room temperature for 30 min. Then, 25 µL of 2× substrate was added, and the reaction was carried out at room temperature for 60 min. 5 µL was taken from the reaction plate and transferred to a 384-well plate for detection. 5 µL of ADP-Glo reagent was added and incubated at room temperature for 60 min, followed by the addition of 10 µL of Kinase Detection Reagent and incubation at room temperature for 40 min. The chemiluminescence signal was detected using a microplate reader.

[1] = read-out: WRN helicase activity (IC50 nM)

T1 sequence (Q14191 whole entry): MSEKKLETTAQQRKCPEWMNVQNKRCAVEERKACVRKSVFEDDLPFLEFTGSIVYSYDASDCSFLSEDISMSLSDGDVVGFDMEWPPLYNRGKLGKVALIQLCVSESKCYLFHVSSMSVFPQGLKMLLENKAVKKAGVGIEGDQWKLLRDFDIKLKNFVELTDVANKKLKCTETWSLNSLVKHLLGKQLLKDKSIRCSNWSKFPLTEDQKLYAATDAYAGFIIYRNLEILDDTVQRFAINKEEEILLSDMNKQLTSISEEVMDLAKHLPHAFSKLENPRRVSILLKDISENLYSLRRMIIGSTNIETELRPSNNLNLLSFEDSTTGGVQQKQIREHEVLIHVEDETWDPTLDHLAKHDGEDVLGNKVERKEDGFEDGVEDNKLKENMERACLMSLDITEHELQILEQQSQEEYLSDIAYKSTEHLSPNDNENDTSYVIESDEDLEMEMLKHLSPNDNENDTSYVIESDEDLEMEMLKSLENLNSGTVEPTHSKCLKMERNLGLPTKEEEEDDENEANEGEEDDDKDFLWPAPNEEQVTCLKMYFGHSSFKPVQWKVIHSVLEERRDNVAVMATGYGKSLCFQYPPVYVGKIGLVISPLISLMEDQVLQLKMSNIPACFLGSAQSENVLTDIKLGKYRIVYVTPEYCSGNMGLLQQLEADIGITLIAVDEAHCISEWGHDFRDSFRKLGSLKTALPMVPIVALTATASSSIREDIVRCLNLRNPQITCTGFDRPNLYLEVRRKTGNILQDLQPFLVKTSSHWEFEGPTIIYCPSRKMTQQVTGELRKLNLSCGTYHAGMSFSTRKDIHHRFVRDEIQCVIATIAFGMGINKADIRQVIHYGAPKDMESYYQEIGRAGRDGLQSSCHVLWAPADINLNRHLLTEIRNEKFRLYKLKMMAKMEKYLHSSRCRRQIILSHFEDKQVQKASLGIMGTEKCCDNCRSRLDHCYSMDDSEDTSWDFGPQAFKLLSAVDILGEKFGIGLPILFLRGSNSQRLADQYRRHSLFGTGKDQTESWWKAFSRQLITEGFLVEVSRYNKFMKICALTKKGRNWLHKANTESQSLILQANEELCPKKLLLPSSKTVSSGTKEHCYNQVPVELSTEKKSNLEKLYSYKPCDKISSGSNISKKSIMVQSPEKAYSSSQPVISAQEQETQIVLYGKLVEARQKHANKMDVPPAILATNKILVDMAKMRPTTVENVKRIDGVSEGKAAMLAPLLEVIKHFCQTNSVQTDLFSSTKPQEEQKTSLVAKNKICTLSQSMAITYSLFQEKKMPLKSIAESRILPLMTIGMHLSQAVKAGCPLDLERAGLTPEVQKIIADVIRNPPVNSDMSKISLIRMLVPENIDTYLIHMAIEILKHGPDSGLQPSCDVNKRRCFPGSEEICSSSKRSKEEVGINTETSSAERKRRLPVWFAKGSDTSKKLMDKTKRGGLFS

Row | SMILES | IC50 (SW620 cells) [nM] | IC50 (LoVo) [nM] | IC50 (SW48 cells) [nM] | IC50 (HCT116 cells) [nM] | IC50 (WRN enzyme) [nM] | IC50 (WRN enzyme; [1]) [nM]
1 | CCc1c(N2CCN(C(=O)c3ncnc(C)c3O)CC2)c(=O)c2nn(C3=CCOCC3)cc2n1CC(=O)Nc1ccc(C(F)(F)F)cc1Cl [Example 5] | > 25000 | 2710 | 943 | 1580 |  | 
2 | CCc1c(N2CCN(C(=O)c3ncccc3O)CC2)c(=O)c2nn(C3=CCOCC3)cc2n1CC(=O)Nc1ccc(C(F)(F)F)cc1Cl [Example 6] | > 25000 |  | 324 |  | 134 | 
3 | CCc1c(N2CCN(C(=O)c3ncnc(C)c3O)CC2)c(=O)c2nn(C3=CCOCC3)nc2n1CC(=O)Nc1ccc(C(F)(F)F)cc1C [Example 8] | > 25000 |  | 133 |  | 118 | 
4 | CCc1c(N2CCN(C(=O)c3ncnc(C)c3O)CC2)c(=O)c2nn(C3=CCOCC3)nc2n1CC(=O)Nc1ccc(C(F)(F)F)cc1F [Example 9] |  |  |  |  |  | 94.9
5 | CCc1c(C2=CCN(C(=O)c3ncnc(C)c3O)CC2)c(=O)c2cn(C3=CCOCC3)nc2n1CC(=O)Nc1ccc(C(F)(F)F)cc1Cl [Example 10] | > 25000 | 871 | 331 | 552 | 238 | 
6 | CCc1c(N2CCN(C(=O)c3ncnc(C)c3O)CC2)c(=O)c2nn(C3=CCN(S(=O)(=O)C4CC4)CC3)cc2n1CC(=O)Nc1ccc(C(F)(F)F)cc1Cl [Example 11] |  |  |  |  |  | 65.3
7 | CCc1c(N2CCN(C(=O)c3ncnc(C)c3O)CC2)c(=O)c2nn(C3=CCOCC3)cc2n1CC(=O)Nc1ccc(S(F)(F)(F)(F)F)cc1 [Example 12] | > 25000 |  | 317 |  | 86 | 
8 | CCc1c(N2CCN(C(=O)c3ncnc(C)c3O)CC2)c(=O)c2nn(C3=CCOCC3)nc2n1CC(=O)Nc1ncc(C(F)(F)F)cc1Cl [Example 13] | > 25000 |  |  | 435 | 104 | 
9 | CCc1c(N2CCN(C(=O)c3ncnc(C)c3O)CC2)c(=O)c2nn(C3=CCOCC3)nc2n1CC(=O)Nc1cc(Cl)c(C(F)(F)F)cc1C [Example 14] | > 25000 |  | 42.4 |  | 30.8 | 
10 | CCc1c(N2CCN(C(=O)c3ncnc(C)c3O)CC2)c(=O)c2nn(C3=CCOCC3)nc2n1CC(=O)Nc1ccc2c(c1)CC2 [Example 16] | > 25000 |  | 148 |  | 42.6 | 
11 | CCc1c(N2CCN(C(=O)c3ncnc(C)c3O)CC2)c(=O)c2nn(C3=CCOCC3)nc2n1CC(=O)Nc1ccc2c(c1)CCC2 [Example 17] | > 25000 |  | 126 |  | 34.7 | 
12 | CCc1c(N2CCN(C(=O)c3ncncc3O)CC2)c(=O)c2nn(C3=CCOCC3)nc2n1CC(=O)Nc1ccc(C(F)(F)F)cc1Cl [Example 18] | > 25000 |  | 51.1 |  | 64.3 | 
13 | CCc1c(N2CCN(C(=O)c3ncccc3O)CC2)c(=O)c2nn(C3=CCOCC3)nc2n1CC(=O)Nc1cc(F)c(C(F)(F)F)cc1Cl [Example 19] | 20700 |  | 60.9 |  | 44.3 | 
14 | CCc1c(N2CCN(C(=O)c3ncccc3O)CC2)c(=O)c2nn(C3=CCOCC3)nc2n1CC(=O)Nc1ccc(C(F)(F)F)cc1Cl [Example 20] | 23700 |  | 33.8 |  | 35.5 | 
15 | CCc1c(N2CCN(C(=O)c3ncnc(C)c3O)CC2)c(=O)c2nn(C3=CCOCC3)nc2n1CC(=O)Nc1ccc(S(F)(F)(F)(F)F)cc1 [Example 21] |  |  |  |  |  | 24.4
16 | CCc1c(N2CCN(C(=O)c3ncnc(C)c3O)CC2)c(=O)c2nn(C3=CCOCC3)nc2n1CC(=O)Nc1cc(F)c(C(F)(F)F)cc1F [Example 23] | > 25000 |  | 102 |  | 41.9 | 
